Results from US5262417A, “Antibacterial quinolone compounds” (The Upjohn Company, priority 1991, dated 1993).
≈ marks a conversion by molar mass, not a printed value. Read-outs that look alike come from different tables or passages of the source. One block for each molecule: values may come before it.

Legend:
Assay in all cases: Minimum inhibitory concentration (MIC) by agar dilution
Assay type in all cases: cell-based
Enterobacter cloacae = tested on: Enterobacter cloacae
Procedure: (§1) Briefly, MIC values are determined in unsupplemented Mueller Hinton Agar (MHA). The compounds tested are diluted serially into molten MHA at 47° C. The agar is poured into petri dishes and allowed to harden. The various bacteria used for testing are grown overnight on MHA at 35° C. and transferred to Trypticase soy broth (TSB) until a turbidity of 0.5 McFarland standard is obtained. The bacteria are diluted one to 20 in TSB and inoculated on the plates (1 μl using a Steers replicator).
as §1, with “Compounds of this invention can also be tested for in vitro antimicrobial activity using standard testing procedures such as the determination of minimum inhibitory concentration (MIC) by agar dilution as described in "Methods for Dilution Antimicrobial Susceptibility Tests for Bacteria That Grow Aerobically" (MFT) published Jan. […] Briefly,” for “Briefly,”, “(1μl” for “(1 μl”

Escherichia coli = conditions: Escherichia coli
Procedure: as §1, with “The antibacterial activity of the compounds of Formula IC was determined by using standard testing procedures such as the determination of minimum inhibitory concentration (MIC) by agar dilution as described in "Methods for Dilution Antimicrobial Susceptibility Tests for Bacteria That Grow Aerobically" (MFT) published January 1983 by the National Committee for Clinical Laboratory Standards, 771 East Lancaster Avenue, Villanova, Pa. 19084, USA. Briefly,” for “Briefly,”
(§2) Compounds of this invention can also be tested for in vitro antimicrobial activity using standard testing procedures such as the determination of minimum inhibitory concentration (MIC) by agar dilution as described in "Methods for Dilution Antimicrobial Susceptibility Tests for Bacteria That Grow Aerobically" (MFT) published Jan. 1983 by the National Committee for Clinical Laboratory Standards, 771 East Lancaster Avenue, Villanova, Penna. 19084, USA. Briefly, MIC values are determined in unsupplemented Mueller Hinton Agar (MHA). The compounds tested are diluted serially into molten MHA at 47° C. The agar is poured into petri dishes and allowed to harden. The various bacteria used for testing are grown overnight on MHA at 35° C. and transferred to Trypticase soy broth (TSB) until a turbidity of 0.5 McFarland standard is obtained. The bacteria are diluted one to 20 in TSB and inoculated on the plates (1μl using a Steers replicator). […] The MIC test results of selected of Formula B compounds of this invention are found in Tables B2-B9.

Proteus penneri = conditions: Proteus penneri
Procedure: (§3) The antibacterial activity of the compounds of Formula IC was determined by using standard testing procedures such as the determination of minimum inhibitory concentration (MIC) by agar dilution as described in "Methods for Dilution Antimicrobial Susceptibility Tests for Bacteria That Grow Aerobically" (MFT) published January 1983 by the National Committee for Clinical Laboratory Standards, 771 East Lancaster Avenue, Villanova, Pa. 19084, USA. Briefly, MIC values are determined in unsupplemented Mueller Hinton Agar (MHA). The compounds tested are diluted serially into molten MHA at 47° C. The agar is poured into petri dishes and allowed to harden. The various bacteria used for testing are grown overnight on MHA at 35° C. and transferred to Trypticase soy broth (TSB) until a turbidity of 0.5 McFarland standard is obtained. The bacteria are diluted one to 20 in TSB and inoculated on the plates (1 μl using a Steers replicator).
as §2

Streptococcus faecalis = conditions: Enterococcus faecalis
Procedure: as §3, §2

[1] = tested on: Acinetobacter calcoaceticus; conditions: Acinetobacter calcoaceticus
Procedure: as §3, §2

Klebsiella pneumoniae = tested on: Klebsiella pneumoniae
Procedure: as §3, §2

Pseudomonas aeruginosa = conditions: Pseudomonas aeruginosa
Procedure: as §3, §2

Streptococcus pyogenes = conditions: Streptococcus pyogenes
Procedure: as §3, §2

[2] = tested on: Staphylococcus epidermidis; conditions: 20 h
Procedure: as §3, §2

Serratia marcescens = conditions: 20 h
Procedure: as §3, §2

Streptococcus pneumoniae = conditions: Streptococcus pneumoniae
Procedure: as §3, §2

Citerobacter freundii = tested on: Citerobacter freundii
Procedure: as §3, §2

Staphylococcus aureus = conditions: Staphylococcus aureus
Procedure: as §3, §2

[3] = UC9382, 20 h, E. cloacae UC 9382, Table CI, read-out: Minimum Inhibitory Concentration
[4] = UC6674, 20 h, E. coli UC 6674, Table CI, read-out: Minimum Inhibitory Concentration
[5] = UC9451, 20 h, E. coli UC 9451, Table CI, read-out: Minimum Inhibitory Concentration
[6] = UC9855, 20 h, E. coli UC 9855, Table CI, read-out: Minimum Inhibitory Concentration
[7] = UC9952, 20 h, E. coli UC 9952, Table CI, read-out: Minimum Inhibitory Concentration
[8] = UC9679, 20 h, P. penneri UC 9679, Table CI, read-out: Minimum Inhibitory Concentration
[9] = UC9217, 20 h, S. faecalis UC 9217, Table CI, read-out: Minimum Inhibitory Concentration
[10] = UC12170, 20 h, A. calcoaceticus UC 12170, Table CI, read-out: Minimum Inhibitory Concentration
[11] = UC12081, 20 h, K. pneumoniae UC 12081, Table CI, read-out: Minimum Inhibitory Concentration
[12] = UC6676, 20 h, Ps. aeruginosa UC 6676, Table CI, read-out: Minimum Inhibitory Concentration
[13] = UC9191, 20 h, Ps. aeruginosa UC 9191, Table CI, read-out: Minimum Inhibitory Concentration
[14] = UC12120, 20 h, Ps. aeruginosa UC 12120, Table CI, read-out: Minimum Inhibitory Concentration
[15] = UC152, 20 h, S. pyogenes UC 152, Table CI, read-out: Minimum Inhibitory Concentration
[16] = S. epidermidis 30031, Table CI, read-out: Minimum Inhibitory Concentration
[17] = UC41, 20 h, S. pneumoniae UC 41, Table CI, read-out: Minimum Inhibitory Concentration
[18] = Citrobacter freundii, UC3507, 20 h, C. freundii UC 3507, Table CI, read-out: Minimum Inhibitory Concentration
[19] = UC6685, 20 h, S. aureus UC 6685, Table CI, read-out: Minimum Inhibitory Concentration
[20] = UC9213, 20 h, S. aureus UC 9213, Table CI, read-out: Minimum Inhibitory Concentration
[21] = UC9218, 20 h, S. aureus UC 9218, Table CI, read-out: Minimum Inhibitory Concentration
[22] = UC9271, 20 h, S. aureus UC 9271, Table CI, read-out: Minimum Inhibitory Concentration
[23] = 20 h, read-out: MINIMUM INHIBITORY CONCENTRATION
[24] = read-out: MINIMUM INHIBITORY CONCENTRATION

- MIC (Enterobacter cloacae; [3]): 1 µg/mL (≈ 2.88 µM)
- MIC (Escherichia coli; [4]): 1 µg/mL (≈ 2.88 µM)
- MIC (Escherichia coli; [5]): 0.5 µg/mL (≈ 1.44 µM)
- MIC (Escherichia coli; [6]): 2 µg/mL (≈ 5.76 µM)
- MIC (Escherichia coli; [7]): 0.5 µg/mL (≈ 1.44 µM)
- MIC (Proteus penneri; [8]): 0.5 µg/mL (≈ 1.44 µM)
- MIC (Streptococcus faecalis; [9]): 32 µg/mL (≈ 92.1 µM)
- MIC [1, 10]: 4 µg/mL (≈ 11.5 µM)
- MIC (Klebsiella pneumoniae; [11]): 1 µg/mL (≈ 2.88 µM)
- MIC (Pseudomonas aeruginosa; [12]): 8 µg/mL (≈ 23 µM)
- MIC (Pseudomonas aeruginosa; [13]): 8 µg/mL (≈ 23 µM)
- MIC (Pseudomonas aeruginosa; [14]): 4 µg/mL (≈ 11.5 µM)
- MIC (Streptococcus pyogenes; [15]): 16 µg/mL (≈ 46.1 µM)
- MIC [2, 16]: 2 µg/mL (≈ 5.76 µM)
- MIC (Serratia marcescens; S. marcescens, UC number not given, Table CI, read-out: Minimum Inhibitory Concentration): 0.06 µg/mL (≈ 0.173 µM)
- MIC (Streptococcus pneumoniae; [17]): 32 µg/mL (≈ 92.1 µM)
- MIC (Citerobacter freundii; [18]): 0.5 µg/mL (≈ 1.44 µM)
- MIC (Staphylococcus aureus; [19]): 4 µg/mL (≈ 11.5 µM)
- MIC (Staphylococcus aureus; [20]): 8 µg/mL (≈ 23 µM)
- MIC (Staphylococcus aureus; [21]): 8 µg/mL (≈ 23 µM)
- MIC (Staphylococcus aureus; [22]): 8 µg/mL (≈ 23 µM)
Compound: C#CCn1cc(C(=O)O)c(=O)c2cc(F)c(N3CCC(N)C3)c(F)c21 (racemic) [D]

Compound: NC1CCN(c2nc3c(cc2F)c(=O)c(C(=O)O)cn3C23CC(C2)C3)C1 (racemic) [No. 36, 7-(3-amino-1-pyrrolidinyl)-1-(bicyclo[1.1.1]pent-1-yl)-1,4-dihydro-6-fluoro-4-oxo-1,8-naphthyridine-3-carboxylic acid]
- MIC (Enterobacter cloacae; [23]): 0.03 µg/mL (≈ 0.0837 µM)
- MIC (Escherichia coli; 20 h, read-out: MINIMUM INHIBITORY CONCENTRATION, Cult No. 6674, MHA): 0.03 µg/mL (≈ 0.0837 µM)
- MIC (Escherichia coli; 20 h, read-out: MINIMUM INHIBITORY CONCENTRATION, Cult No. 9451, MHA): 0.03 µg/mL (≈ 0.0837 µM)
- MIC (Escherichia coli; 20 h, read-out: MINIMUM INHIBITORY CONCENTRATION, Cult No. 9855, MHA): 0.06 µg/mL (≈ 0.167 µM)
- MIC (Escherichia coli; 20 h, read-out: MINIMUM INHIBITORY CONCENTRATION, Cult No. 9952, MHA): 0.03 µg/mL (≈ 0.0837 µM)
- MIC (Proteus penneri; 20 h, read-out: MINIMUM INHIBITORY CONCENTRATION, Cult No. 9679, MHA): 0.25 µg/mL (≈ 0.698 µM)
- MIC (Streptococcus faecalis; [23]): 0.5 µg/mL (≈ 1.4 µM)
- MIC ([1]; 20 h, read-out: MINIMUM INHIBITORY CONCENTRATION, Cult No. 12170, MHA): 0.125 µg/mL (≈ 0.349 µM)
- MIC (Klebsiella pneumoniae; [23]): 0.06 µg/mL (≈ 0.167 µM)
- MIC (Pseudomonas aeruginosa; 20 h, read-out: MINIMUM INHIBITORY CONCENTRATION, Cult No. 6676, MHA): 1 µg/mL (≈ 2.79 µM)
- MIC (Pseudomonas aeruginosa; 20 h, read-out: MINIMUM INHIBITORY CONCENTRATION, Cult No. 9191, MHA): 0.5 µg/mL (≈ 1.4 µM)
- MIC (Pseudomonas aeruginosa; 20 h, read-out: MINIMUM INHIBITORY CONCENTRATION, Cult No. 12120, MHA): 0.25 µg/mL (≈ 0.698 µM)
- MIC (Streptococcus pyogenes; 20 h, read-out: MINIMUM INHIBITORY CONCENTRATION, Cult No. 152, MHA): 0.25 µg/mL (≈ 0.698 µM)
- MIC [2, 24]: 0.06 µg/mL (≈ 0.167 µM)
- MIC (Serratia marcescens; [24]): 0.125 µg/mL (≈ 0.349 µM)
- MIC (Streptococcus pneumoniae; 20 h, read-out: MINIMUM INHIBITORY CONCENTRATION, Cult No. 41, MHA): 0.5 µg/mL (≈ 1.4 µM)
- MIC (Citerobacter freundii; [23]): 0.03 µg/mL (≈ 0.0837 µM)
- MIC (Staphylococcus aureus; 20 h, read-out: MINIMUM INHIBITORY CONCENTRATION, Cult No. 6685, MHA): 0.125 µg/mL (≈ 0.349 µM)
- MIC (Staphylococcus aureus; 20 h, read-out: MINIMUM INHIBITORY CONCENTRATION, Cult No. 9213, MHA): 0.125 µg/mL (≈ 0.349 µM)
- MIC (Staphylococcus aureus; 20 h, read-out: MINIMUM INHIBITORY CONCENTRATION, Cult No. 9218, MHA): 0.125 µg/mL (≈ 0.349 µM)
- MIC (Staphylococcus aureus; 20 h, read-out: MINIMUM INHIBITORY CONCENTRATION, Cult No. 9271, MHA): 0.125 µg/mL (≈ 0.349 µM)

Compound: C#CC(C)(C)n1cc(C(=O)O)c(=O)c2cc(F)c(N3CCC(N)C3)nc21.CS(=O)(=O)O (racemic) [E, (+,-)-7-(3-amino-1-pyrrolidinyl)-1,4-dihydro-1-(1,1-dimethyl-2-propynyl)-6-fluoro-4-oxo-1,8-naphthyridine-3-carboxylic acid methanesulfonate]
- MIC (Enterobacter cloacae; [3]): 0.06 µg/mL
- MIC (Escherichia coli; [4]): 0.06 µg/mL
- MIC (Escherichia coli; [5]): 0.06 µg/mL
- MIC (Escherichia coli; [6]): 0.06 µg/mL
- MIC (Escherichia coli; [7]): 0.06 µg/mL
- MIC (Proteus penneri; [8]): 0.5 µg/mL
- MIC (Streptococcus faecalis; [9]): 1 µg/mL
- MIC [1, 10]: 0.25 µg/mL
- MIC (Klebsiella pneumoniae; [11]): 0.125 µg/mL
- MIC (Pseudomonas aeruginosa; [12]): 2 µg/mL
- MIC (Pseudomonas aeruginosa; [13]): 1 µg/mL
- MIC (Pseudomonas aeruginosa; [14]): 0.5 µg/mL
- MIC (Streptococcus pyogenes; [15]): 0.25 µg/mL
- MIC [2, 16]: 0.125 µg/mL
- MIC (Streptococcus pneumoniae; [17]): 0.5 µg/mL
- MIC (Citerobacter freundii; [18]): 0.06 µg/mL
- MIC (Staphylococcus aureus; [19]): 0.125 µg/mL
- MIC (Staphylococcus aureus; [20]): 0.25 µg/mL
- MIC (Staphylococcus aureus; [21]): 0.25 µg/mL
- MIC (Staphylococcus aureus; [22]): 0.25 µg/mL
